Test results taken from ChEMBL document CHEMBL1148877, “Evaluation of 4'-substituted bicyclic pyridones as non-steroidal inhibitors of steroid 5alpha-reductase” (Bioorg Med Chem Lett, 2007).

What was measured:
[1] = target: T1, 3-oxo-5-alpha-steroid 4-dehydrogenase 1 (Homo sapiens) (UniProt P18405); assay: Inhibition of steroid 5-alpha reductase type 1 expressed in HEK 293 cells at 10 uM; format: cell-based; details: HEK293
T1 sequence (whole entry): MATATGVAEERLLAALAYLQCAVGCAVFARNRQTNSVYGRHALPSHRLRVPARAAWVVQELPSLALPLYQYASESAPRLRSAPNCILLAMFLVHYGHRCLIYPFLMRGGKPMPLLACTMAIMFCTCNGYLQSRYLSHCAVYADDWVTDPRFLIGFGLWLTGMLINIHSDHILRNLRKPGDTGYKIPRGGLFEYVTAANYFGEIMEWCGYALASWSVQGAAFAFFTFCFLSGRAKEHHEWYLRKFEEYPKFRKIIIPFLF

[2] = target: T2, 3-oxo-5-alpha-steroid 4-dehydrogenase 1 (Homo sapiens, UniProt P18405); assay: Inhibition of steroid 5-alpha reductase type 1 expressed in HEK 293 cells; format: cell-based, HEK293
T2 sequence (P18405 whole entry): T1 sequence (whole entry)

[3] = target: T3, 3-oxo-5-alpha-steroid 4-dehydrogenase 2 (Homo sapiens, UniProt P31213); assay: Inhibition of steroid 5-alpha reductase type 2 expressed in HEK 293 cells; format: cell-based, HEK293
T3 sequence (P31213 whole entry): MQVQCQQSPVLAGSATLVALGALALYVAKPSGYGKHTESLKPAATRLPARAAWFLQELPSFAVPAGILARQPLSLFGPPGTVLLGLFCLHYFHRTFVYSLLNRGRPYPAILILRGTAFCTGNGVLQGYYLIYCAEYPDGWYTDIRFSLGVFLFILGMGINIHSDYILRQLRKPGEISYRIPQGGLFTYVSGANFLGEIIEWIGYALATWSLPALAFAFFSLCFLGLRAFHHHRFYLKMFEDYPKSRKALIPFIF

[4] = target: T4, 3-oxo-5-alpha-steroid 4-dehydrogenase 2 (Homo sapiens) (UniProt P31213); assay: Inhibition of steroid 5-alpha reductase type 2 expressed in HEK 293 cells at 10 uM; format: cell-based; details: HEK293
T4 sequence (whole entry): T3 sequence (P31213 whole entry)

Compound: CC(C)NC(=O)COc1ccc(-c2ccc(=O)n(C)c2)cc1
- inhibition [1]: 8%

Compound: Cn1cc(-c2ccc(C(=O)Cc3ccccc3)cc2)ccc1=O
- inhibition [1]: 61%

Compound: CC(C)(C)NC(=O)[C@H]1CC[C@H]2[C@@H]3CC[C@H]4NC(=O)C=C[C@]4(C)[C@H]3CC[C@]12C [FINASTERIDE]
- IC50 [2]: 453 nM
- IC50 [3]: 25 nM

Compound: CC1CC(=O)C=CN1c1ccc(OCC(=O)N(C(C)C)C(C)C)cc1 (stereo unspecified)
- inhibition [1]: 3%

Compound: CC(=O)SCCCCCCCCCCCCCCCC(=O)NCCOCCOC(=O)CC/C=C/CNC(=O)COc1ccc(-c2ccc(=O)n(C)c2)cc1
- inhibition [1]: 33%

Compound: CC(C)N(C(=O)COc1ccc(C2CCC(=O)N(C)C2)cc1)C(C)C (stereo unspecified)
- inhibition [1]: 6%

Compound: C=CCNC(=O)COc1ccc(N2C=CC(=O)CC2C)cc1 (stereo unspecified)
- inhibition [4]: 12%
- inhibition [1]: 8%

Compound: C=CCNC(=O)COc1ccc(-c2ccc(=O)n(C)c2)cc1
- inhibition [1]: 6%

Compound: CC(=O)SCCCCCCCCCCCCCCCC(=O)NCCOC(=O)CC/C=C/CNC(=O)COc1ccc(-c2ccc(=O)n(C)c2)cc1
- inhibition [1]: 43%
